Assay results as given in paper PMC5622107, “Small molecule inhibition of cGAS reduces interferon expression in primary macrophages from autoimmune mice” (Nature Communications, 2017).
Where two headings read alike, the source gives them in different places.

How the values were obtained:
[1] = biological target: T1, mouse cGAS (Mus musculus, UniProt Q8C6L5); test: RapidFire mass spectrometry (RF-MS) cGAS enzymatic assay, cGAMP product formation; format: biochemical; conditions: for kcat / Km: substrate of mouse cGAS, no inhibitor; for Km: allosteric sigmoidal fitting; for inhibition at 12.5 µM: read-out: % inhibition at 12.5 µM; for effect of structural modification on cGAS inhibitory potency: compared with RU.365
T1 construct: recombinant full-length mouse cGAS in reaction buffer; His6-SUMO (N, cleaved yes); made in house; host or cells: E. coli BL21(DE3) RIL
Protocol: The liquid was collected at the well bottom using centrifugation for 30 s at 180×g. […] Plates were centrifuged for 30 s at 180×g to collect all liquid at the bottom of the wells. […] The reaction was stopped by addition of 65 µl of 0.5% (v/v) formic acid per well. The plates were centrifuged for 30 s at 180×g and sealed with a Velocity11 PlateLoc thermal plate sealer.
The solvent used for loading/washing process was an aqueous solution of 5 mM ammonium acetate, pH 10. […] Each sample of approximately 35 µl were aspirated from a 384-well plate and separated using a Graphitic carbon Type D cartridge. After each sample was loaded onto the cartridge it was washed for 4 s at 1.5 ml min^−1 using the aqueous solvent. ATP, GTP and cGAMP were eluted for 5 s using the organic solvent at a flow rate of 1.5 ml min^−1. The cartridge was then re-equilibrated with the aqueous solvent for 5 s at a flow rate of 1.5 ml min^−1. All samples were analyzed using a negative ionization mode in the mass spectrometer, with a gas temperature of 350 °C, nebulizer pressure of 35 psig, gas flow rate of 15 l min^−1. […] The Agilent RapidFire Integrator software was used to calculate the area under the curve (AUC) of the extracted ion counts for each analyte. Data points represent values of product formation. Catalytic rates expressed as percent product formation were calculated using the AUC of cGAMP and using the AUC’s of ATP and GTP to normalize for variations in the capacity of the solid phase extraction column during a screening run, as shown in the following formula: product formation (%) = [(AUCcGAMP × 100)/(AUCcGAMP + ½ AUCATP + ½ AUCGTP)].
To determine the percent inhibition of mouse cGAS the data was normalized against the positive control (column 24) and negative control (column 23). […] The quality of the screen was assessed by Z′ factor[57] calculated as follows: Z′ = 1−[3∗(standard deviation positive control + standard deviation negative control)/(average positive control—average negative control)].

[2] = tested on: 45-bp dsDNA; test: DNA intercalation: acridine orange displacement from dsDNA by fluorescence polarization; format: binding; conditions: Supplementary Table 2; for % intercalation at 30 µM: acridine orange displacement compared to mitoxantrone; for Polarization: compound 30 µM
Protocol: Ten microliters of HEN buffer (10 mM HEPES pH 7.5, 1 mM EDTA pH 7.5, 100 mM NaCl) were dispensed per well using a Thermo Multidrop Combi dispenser (Thermo Scientific). The liquid was collected at the well bottom using centrifugation for 30 s at 180×g. […] The final concentration of compounds in the assay was 30 µM. […] The liquid was collected at the well bottom using centrifugation for 30 s at 180×g. […] The liquid was collected at the well bottom using centrifugation for 30 s at 180 × g and the plates were incubated for 30 min. Mitoxantrone, a known DNA intercalator was used at 50 µM as a positive control, while DMSO alone was used as negative control. FP was measured using a Biotek Synergy Neo plate reader. […] All FP values are expressed in millipolarization (mP) units. The mP values were calculated using the equation mP = 1000 × [(I S−I SB)−(I P−I PB)]/[I S—I SB) + (I P−I PB)], where I S and […] to the parallel and perpendicular emission intensity, respectively, and I SB and I SP corresponds to parallel emission intensity perpendicular emission intensity of the buffer, respectively. The experimental G-factor, defined as G = I S/I P, was set to 1.0 in all experiments.

[3] = Supplementary Table 2, batch of compounds stored in the screening library, read-out: IC50
[4] = Supplementary Table 2, compound 12.5 µM
[5] = Supplementary Table 4, analogs of RU166365, m-cGAS inhibition, read-out: IC50
[6] = Supplementary Table 3, analogs more potent than RU166365, read-out: IC50

T1 sequence (Q8C6L5 whole entry): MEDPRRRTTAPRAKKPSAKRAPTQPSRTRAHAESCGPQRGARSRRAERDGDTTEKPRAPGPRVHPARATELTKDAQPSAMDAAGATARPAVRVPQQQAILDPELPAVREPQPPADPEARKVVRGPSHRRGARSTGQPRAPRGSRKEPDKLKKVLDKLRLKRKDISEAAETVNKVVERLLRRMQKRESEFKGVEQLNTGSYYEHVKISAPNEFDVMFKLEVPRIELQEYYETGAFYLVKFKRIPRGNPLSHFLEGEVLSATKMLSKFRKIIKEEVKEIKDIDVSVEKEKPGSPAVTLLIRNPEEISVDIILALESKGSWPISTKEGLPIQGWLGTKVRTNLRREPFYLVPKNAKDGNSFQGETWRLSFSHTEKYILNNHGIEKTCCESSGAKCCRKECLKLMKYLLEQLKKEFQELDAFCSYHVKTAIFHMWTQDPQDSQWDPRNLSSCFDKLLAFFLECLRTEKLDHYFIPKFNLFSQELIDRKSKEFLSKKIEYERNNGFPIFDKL

Nc1ncnc2c1ncn2[C@@H]1O[C@H](COP(=O)(O)OP(=O)(O)OP(=O)(O)O)[C@@H](O)[C@H]1O [ATP]
kcat [1]: 0.383 s⁻¹ | Km [1]: 86 ± 6.7 µM

Nc1nc2c(ncn2[C@@H]2O[C@H](COP(=O)(O)OP(=O)(O)OP(=O)(O)O)[C@@H](O)[C@H]2O)c(=O)[nH]1 [GTP]
kcat [1]: 0.383 s⁻¹ | Km [1]: 96.4 ± 5.1 µM

Oc1c(Cl)cc(Cl)c(Cl)c1Cc1c(O)c(Cl)cc(Cl)c1Cl [RU161]
IC50 [1]: 390 nM | inhibition at 12.5 µM [1]: 93% | % intercalation at 30 µM [2]: 69.6% | Polarization [2]: 108 mP

COC(=O)C1=C(C)NC(C)=C(C(=O)OC)C1c1ccccc1[N+](=O)[O-] [RU199]
IC50 [1, 3]: 800 nM | inhibition at 12.5 µM [1, 4]: 91%

O=[N+]([O-])c1cc([As](=O)(O)O)ccc1O [RU297]
% intercalation at 30 µM [2]: -9.8% | Polarization [2]: 271 mP

CCN(CC)CCCC(C)Nc1c2ccc(Cl)cc2nc2ccc(OC)cc12 (stereo not drawn) [RU316]
IC50 [1, 3]: 6220 nM | % inhibition at 12.5 µM [1, 4]: 68% | Polarization [2]: 140 mP

Nc1c2ccccc2nc2ccccc12 [RU431]
IC50 [1, 3]: 2830 nM | inhibition at 12.5 µM [1, 4]: 78% | Polarization [2]: 145 mP

O=C1c2c(O)ccc(O)c2C(=O)c2c(NCCNCCO)ccc(NCCNCCO)c21 [RU627]
IC50 [1, 3]: 720 nM | inhibition at 12.5 µM [1, 4]: 94% | % intercalation at 30 µM [2]: 102.5% | Polarization [2]: 41 mP

O=C(O)c1cc(O)c2c(c1)[C@@H]([C@H]1c3cc(C(=O)O)cc(O)c3C(=O)c3c(O[C@H]4O[C@H](CO)[C@@H](O)[C@H](O)[C@H]4O)cccc31)c1cccc(O[C@H]3O[C@H](CO)[C@@H](O)[C@H](O)[C@H]3O)c1C2=O [RU646]
IC50 [1, 3]: 8760 nM | inhibition at 12.5 µM [1, 4]: 82% | % intercalation at 30 µM [2]: -13.5% | Polarization [2]: 278 mP

CC[n+]1c(-c2ccccc2)c2cc(N)ccc2c2ccc(N)cc21 [RU662]
IC50 [1, 3]: 430 nM | inhibition at 12.5 µM [1, 4]: 97% | % intercalation at 30 µM [2]: 101.9% | Polarization [2]: 42 mP

O=[N+]([O-])c1ccc(O)c([N+](=O)[O-])c1 [RU803]
IC50 [1]: 870 nM | inhibition at 12.5 µM [1]: 96% | % intercalation at 30 µM [2]: -4.7% | Polarization [2]: 260 mP

CCN(CC)CCNc1ccc(CO)c2sc3ccccc3c(=O)c12 [RU869]
IC50 [1, 3]: 6800 nM | inhibition at 12.5 µM [1, 4]: 66% | % intercalation at 30 µM [2]: 81.2% | Polarization [2]: 85 mP

C[n+]1cc2c3c(ccc2c2ccc4cc5c(cc4c21)OCO5)OCO3 [RU871]
IC50 [1, 3]: 3370 nM | inhibition at 12.5 µM [1, 4]: 85% | % intercalation at 30 µM [2]: 95.0% | Polarization [2]: 56 mP

CCCc1c(C)nn(-c2nc3ccccc3[nH]2)c1O [RU166418]
IC50 [1, 5]: > 25000 nM

CC(C)c1ccc2oc3nc(N)c(C(=O)O)cc3c(=O)c2c1 [RU185491]
% intercalation at 30 µM [2]: 1.5% | Polarization [2]: 248 mP

Cc1ccc(-c2cc(O)n(-c3nc4ccccc4[nH]3)n2)cc1 [RU281319]
IC50 [1, 5]: > 25000 nM

Cc1cc(O)n(-c2nc3ccccc3[nH]2)n1 [RU281324]
IC50 [1, 5]: > 25000 nM

COc1ccc2nc(-n3nc(C)c(C4OC(=O)c5ccccc54)c3O)[nH]c2c1 (stereo not drawn) [RU320459]
IC50 [1, 5]: 7340 nM

COc1cccc2nc(-n3nc(C)c(C4OC(=O)c5ccccc54)c3O)[nH]c12 (stereo not drawn) [RU320460]
IC50 [1, 5]: 5610 nM

Cc1ccc2nc(-n3nc(C)c(C4OC(=O)c5ccccc54)c3O)[nH]c2c1 (stereo not drawn) [RU320461]
IC50 [1, 6]: 860 nM | effect of structural modification on cGAS inhibitory potency [1]: increased inhibitory potency

Cc1nn(-c2nc3ccc(Br)cc3[nH]2)c(O)c1C1OC(=O)c2ccccc21 (stereo not drawn) [RU320462]
IC50 [1, 6]: 640 nM | effect of structural modification on cGAS inhibitory potency [1]: increased inhibitory potency

Cc1nn(-c2nc3ccccc3[nH]2)c(O)c1C1OC(=O)c2c(Br)cccc21 (stereo not drawn) [RU320463]
IC50 [1, 5]: 2760 nM

Cc1nn(-c2nc3ccccc3[nH]2)c(O)c1C1OC(=O)c2ccc(Br)cc21 (stereo not drawn) [RU320464]
IC50 [1, 5]: 2240 nM

Cc1nn(-c2nc3ccccc3[nH]2)c(O)c1C1NC(=O)c2ccccc21 (stereo not drawn) [RU320465]
IC50 [1, 5]: > 25000 nM | effect of structural modification on cGAS inhibitory potency [1]: abolished inhibitory activity
